In patent US7888005B2, “Inhibitors of macromolecular activity” (priority 2003, dated 2011):

Legend:
[1] = tested on: E. coli ribonuclease P RNA; conditions: literature (Vioque 1989; Mikkelsen et al.); cited from earlier work
[2] = tested on: strain DM46, which contains the rnpB gene cloned on a high copy plasmid; test: Top agar plate screen of extract dilutions, strain DM46; type: cell-based, E. coli; conditions: strain DM46 (multicopy rnpB)
Experimental: (§1) Methods. Different strains of E. coli-DH5alpha (DM46 and PTZ/19R) were streaked onto bacto MacConkey agar base plate containing ampicillin at 50 μg/ml. Then a fresh single colony was grown on 5 ml NZY Ap (50 μg/ml) broth at 37° C. overnight. The next day a frozen cell from the above cells was made. 1 ml of a freshly saturated culture was added to a microcentrifuge tube containing 1 ml DMSO (7%). These cells were stored at −80° C. Cells from frozen stocks were streaked out again and one colony from each plate was transferred to 1 ml NZY(amp, 50 μg/ml) broth. The tubes were shaken at 37° C. overnight.
(§2) Top agar (1% tryptone, 0.8% NaCl, 0.7% agar) was used to distribute cells in a thin layer over the surface of a plate. 100 μl of fresh cell was mixed with 2.5 ml top agar. The mixture was then poured into NZY AP (50 μg/ml). Microtiter dishes containing 96-well, were used to prepare serial dilutions in 10% DMSO (1:5, 1:25, 1:125, 1:625) of extracts. A multi-channel pipeting device was used to add 5 μl extract to the top agar plate. Agar plates containing extract were incubated overnight at 37° C. At the end of incubation, inhibition appeared as clear zone around the place that extract was added. Positive extracts from the initial screens were analyzed further. […]

[3] = tested on: E. coli cell (19R/PTZ) strain containing a single chromosomal copy of the wildtype rnpB gene; test: Top agar plate screen of extract dilutions, strain 19R/PTZ; type: cell-based; conditions: strain 19R/PTZ (single chromosomal rnpB)
Experimental: as §1, §2

Compound | Inhibition of ribonuclease P RNA reaction [1] | Inhibition of growth, in words [2] | Inhibition of growth, in words [3]
NC[C@@H]1O[C@H](O[C@H]2[C@@H](O)[C@H](O[C@@H]3[C@@H](O)[C@H](N)C[C@H](N)[C@H]3O[C@H]3O[C@H](CN)[C@@H](O)[C@H](O)[C@H]3N)O[C@@H]2CO)[C@H](N)[C@@H](O)[C@@H]1O [Neomycin B] | micromolar concentrations | – | –
COc1ccc(C[C@H](N)C(=O)N[C@H]2[C@@H](O)[C@H](n3cnc4c(N(C)C)ncnc43)O[C@@H]2CO)cc1 [puromycin] | inhibits the catalytic reaction of ribonuclease P RNA | inhibits the growth of both strains | inhibits the growth of both strains
